Laboratory results: PubChem BioAssay AID1963963 (Molecular Pharmacology Branch, DTP, NCI, 2024)

System: 958667-338-R-J2-PDC tumor spheroids viability
Assay: Anticancer human tumor 958667-338-R-J2-PDC patient-derived colon adenocarcinoma cell line growth inhibition [PI3K]
Details: spheroids with HUVEC and MSC; for viability, T/C: stronger effect = lower value
Summary of the method: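 Spheroid viability read-out. Co-cultures contained the tumor line plus HUVEC and human MSCs. Each agent was paired with a PI3K inhibitor (inavolisib, alpelisib, duvelisib, copanlisib) across half-log dilutions starting at clinical Cmax, or at 10 microM when Cmax was unknown.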

[1] = curve of first compound, second compound 0.0316 µM
[2] = curve of first compound, second compound 0.1 µM
[3] = curve of first compound, second compound 0.316 µM
[4] = curve of first compound, second compound 1 µM
[5] = curve of first compound, second compound 3.16 µM
[6] = curve of first compound, second compound 10 µM
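Also: spheroids exposed to compounds for seven days before readout.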

## CC(C)NCC(C(=O)N1CCN(c2ncnc3c2C(C)CC3O)CC1)c1ccc(Cl)cc1 (stereo not given) + CC(Nc1ncnc2nc[nH]c12)c1cc2cccc(Cl)c2c(=O)n1-c1ccccc1
[1]
  IC50: > 10000 nM
[2]
  IC50: > 10000 nM
[3]
  IC50: > 10000 nM
[4]
  IC50: > 10000 nM
[5]
  IC50: > 10000 nM
[6]
  IC50: > 10000 nM
Second compound 0.0316 µM, first compound 0.0316 µM
  viability, T/C: 81.9%
Second compound 0.0316 µM, first compound 0.1 µM
  viability, T/C: 97.3%
Second compound 0.0316 µM, first compound 0.316 µM
  viability, T/C: 72.1%
Second compound 0.0316 µM, first compound 1 µM
  viability, T/C: 82%
Second compound 0.0316 µM, first compound 3.16 µM
  viability, T/C: 89.7%
Second compound 0.0316 µM, first compound 10 µM
  viability, T/C: 64%
Second compound 0.1 µM, first compound 0.0316 µM
  viability, T/C: 102%
Second compound 0.1 µM, first compound 0.1 µM
  viability, T/C: 95.7%
Second compound 0.1 µM, first compound 0.316 µM
  viability, T/C: 86.5%
Second compound 0.1 µM, first compound 1 µM
  viability, T/C: 95.7%
Second compound 0.1 µM, first compound 3.16 µM
  viability, T/C: 92.4%
Second compound 0.1 µM, first compound 10 µM
  viability, T/C: 68.7%
Second compound 0.316 µM, first compound 0.0316 µM
  viability, T/C: 94.7%
Second compound 0.316 µM, first compound 0.1 µM
  viability, T/C: 104%
Second compound 0.316 µM, first compound 0.316 µM
  viability, T/C: 80%
Second compound 0.316 µM, first compound 1 µM
  viability, T/C: 94%
Second compound 0.316 µM, first compound 3.16 µM
  viability, T/C: 83.3%
Second compound 0.316 µM, first compound 10 µM
  viability, T/C: 70.5%
Second compound 1 µM, first compound 0.0316 µM
  viability, T/C: 85.9%
Second compound 1 µM, first compound 0.1 µM
  viability, T/C: 80.6%
Second compound 1 µM, first compound 0.316 µM
  viability, T/C: 93.4%
Second compound 1 µM, first compound 1 µM
  viability, T/C: 101%
Second compound 1 µM, first compound 3.16 µM
  viability, T/C: 77.8%
Second compound 1 µM, first compound 10 µM
  viability, T/C: 63.4%
Second compound 3.16 µM, first compound 0.0316 µM
  viability, T/C: 77.4%
Second compound 3.16 µM, first compound 0.1 µM
  viability, T/C: 87.5%
Second compound 3.16 µM, first compound 0.316 µM
  viability, T/C: 102%
Second compound 3.16 µM, first compound 1 µM
  viability, T/C: 84.2%
Second compound 3.16 µM, first compound 3.16 µM
  viability, T/C: 80.2%
Second compound 3.16 µM, first compound 10 µM
  viability, T/C: 64.7%
Second compound 10 µM, first compound 0.0316 µM
  viability, T/C: 91.2%
Second compound 10 µM, first compound 0.1 µM
  viability, T/C: 88.4%
Second compound 10 µM, first compound 0.316 µM
  viability, T/C: 79.3%
Second compound 10 µM, first compound 1 µM
  viability, T/C: 83.2%
Second compound 10 µM, first compound 3.16 µM
  viability, T/C: 81.7%
Second compound 10 µM, first compound 10 µM
  viability, T/C: 55.2%

## COc1c(OCCCN2CCOCC2)ccc2c3n(c(=NC(=O)c4cnc(N)nc4)nc12)CCN3
Compound 0.00316 µM
  viability, T/C: 92.6% [middle of 8 runs]
Compound 0.0316 µM
  viability, T/C: 71.9% [middle of 8 runs]
Compound 0.1 µM
  viability, T/C: 54% [middle of 8 runs]
Compound 0.316 µM
  viability, T/C: 38.8% [middle of 8 runs]
Compound 1 µM
  viability, T/C: 18.2% [middle of 8 runs]
Compound alone, run of 06/13/2023
  IC50: 147 nM [middle of 8 runs]

## Cn1cnc2c(F)c(Nc3ccc(Br)cc3Cl)c(C(=O)NOCCO)cc21 + CC(Nc1ncnc2nc[nH]c12)c1cc2cccc(Cl)c2c(=O)n1-c1ccccc1
[1]
  IC50: 365 nM
[2]
  IC50: 261 nM
[3]
  IC50: 363 nM
[4]
  IC50: 280 nM
[5]
  IC50: 210 nM
[6]
  IC50: 90.4 nM
Second compound 0.0316 µM, first compound 0.00949 µM
  viability, T/C: 89.8%
Second compound 0.0316 µM, first compound 0.03 µM
  viability, T/C: 80.5%
Second compound 0.0316 µM, first compound 0.0949 µM
  viability, T/C: 71%
Second compound 0.0316 µM, first compound 0.3 µM
  viability, T/C: 52.2%
Second compound 0.0316 µM, first compound 0.949 µM
  viability, T/C: 35.5%
Second compound 0.0316 µM, first compound 3 µM
  viability, T/C: 20%
Second compound 0.1 µM, first compound 0.00949 µM
  viability, T/C: 84.3%
Second compound 0.1 µM, first compound 0.03 µM
  viability, T/C: 80.6%
Second compound 0.1 µM, first compound 0.0949 µM
  viability, T/C: 62.6%
Second compound 0.1 µM, first compound 0.3 µM
  viability, T/C: 49.3%
Second compound 0.1 µM, first compound 0.949 µM
  viability, T/C: 31.3%
Second compound 0.1 µM, first compound 3 µM
  viability, T/C: 20.3%
Second compound 0.316 µM, first compound 0.00949 µM
  viability, T/C: 80.7%
Second compound 0.316 µM, first compound 0.03 µM
  viability, T/C: 97.4%
Second compound 0.316 µM, first compound 0.0949 µM
  viability, T/C: 74.8%
Second compound 0.316 µM, first compound 0.3 µM
  viability, T/C: 53.3%
Second compound 0.316 µM, first compound 0.949 µM
  viability, T/C: 32.2%
Second compound 0.316 µM, first compound 3 µM
  viability, T/C: 19.8%
Second compound 1 µM, first compound 0.00949 µM
  viability, T/C: 73.3%
Second compound 1 µM, first compound 0.03 µM
  viability, T/C: 83.5%
Second compound 1 µM, first compound 0.0949 µM
  viability, T/C: 59.7%
Second compound 1 µM, first compound 0.3 µM
  viability, T/C: 48.2%
Second compound 1 µM, first compound 0.949 µM
  viability, T/C: 33.9%
Second compound 1 µM, first compound 3 µM
  viability, T/C: 17%
Second compound 3.16 µM, first compound 0.00949 µM
  viability, T/C: 85.3%
Second compound 3.16 µM, first compound 0.03 µM
  viability, T/C: 81.6%
Second compound 3.16 µM, first compound 0.0949 µM
  viability, T/C: 57%
Second compound 3.16 µM, first compound 0.3 µM
  viability, T/C: 44.3%
Second compound 3.16 µM, first compound 0.949 µM
  viability, T/C: 31.3%
Second compound 3.16 µM, first compound 3 µM
  viability, T/C: 13.3%
Second compound 10 µM, first compound 0.00949 µM
  viability, T/C: 78.3%
Second compound 10 µM, first compound 0.03 µM
  viability, T/C: 62.9%
Second compound 10 µM, first compound 0.0949 µM
  viability, T/C: 45.2%
Second compound 10 µM, first compound 0.3 µM
  viability, T/C: 41.7%
Second compound 10 µM, first compound 0.949 µM
  viability, T/C: 20.7%
Second compound 10 µM, first compound 3 µM
  viability, T/C: 10.4%
